According to US8497352B2, “Use of Wnt5-α peptide derivates for the treatment of melanoma and gastric cancer” (Wntresearch AB, priority 2008, dated 2013):
Entries after “also recorded” stand apart in the source; their conditions may differ. Bridges are numbered along the chain shown (N, C = ends). Where no end group is shown, it is not given here. The star is where a group is joined. Boc = CC(C)(C)OC(=O)*

Columns and labels:
Format in all cases: cell-based, human
[1] = test system: Wnt-5a-induced Ca^2+ signaling; assay: Determination of cytosolic free calcium levels (fura-2) in A2058 cells; settings: for Cytosolic Ca^2+ response in A2058 cells, control G-protein coupled receptor ligands: endothelin-1 10 nM, charbacol 5 μM
Experimental: Cells grown on a glass cover slip were incubated with 4 μM fura-2/AM in culture medium for 30 minutes at 37° C. (Dejmek et al., 2006). After fura-2 loading of the cells, the cover slips were washed and mounted in a specially designed chamber to which was added a calcium-containing medium (136 mM NaCl, 4.7 mM KCl, 1.2 mM MgSO4, 1.1 mM CaCl2, 1.2 KH2PO4, 5 mM NaHCO3, 5.5 mM glucose and 20 mM Hepes, pH 7.4). The chamber was then placed in a system consisting of a NIKON Diaphot microscope connected to a Photon Technology International (PTI) imaging system. The cells were first allowed to rest for 10 minutes before any stimulation was performed. Fura-2 fluorescence was then recorded continuously from the cells before and after the stimulations with either Wnt-5a, endothelin-1 or charbacol (as indicated in the legend to FIG. 8) using an excitation wavelength rapidly alternating between 340 and 380 nm, while the emission wavelength was set at 510 nm. The fluorescence intensity ratios (340/380 nm) were subsequently calculated and analyzed using the PTI Image Master Software. Statistical analysis—The Student's t-test for unpaired samples was used to analyze differences in the experiments, where *=p<0.05, **=p<0.01, and ***=p<0.001

A2058 melanoma cells [2] = assay: BD Matrigel invasion chamber assay, A2058 cells
Experimental: (§1) Cell invasion was analyzed using the BD Matrigel™ invasion chamber assay (BD Biosciences, Bedford, Mass.). Prior to the initiation of each experiment, the cells were detached with Versene and re-suspended as single cells in serum-free RPMI medium. As indicated, cells were pre-incubated with the Box5 peptide (100 μM) or control solvent for 40 min with continuous agitation. An aliquot of the cell suspension containing 25,000 cells and 100 μM Box5 or control solvent was then added to the upper transwell chamber, and the lower chamber was filled with serum-containing (10%) medium. The invasion chambers were shaken horizontally for 5 min to ensure even distribution of the cells in suspension and subsequently across the membrane surface. The cells were allowed to invade for the periods of time indicated at 37° C. in a humidified atmosphere of 5% CO2. The medium was discarded and cells were fixed in 4% paraformaldehyde for 10 min. The cells were stained with 0.5% crystal violet in 20% methanol for 10 min and the non-invading cells on the inner side of the membrane were removed with a cotton-tipped applicator. The membrane was cut out of the chamber using a scalpel blade and the stained cells on the lower chamber side of the membrane were counted.

HTB63 melanoma cells [3] = assay: Wound-healing assay (migration), HTB63 cells; settings: 100 μM peptide in conditioned medium containing secreted Wnt-5a
Experimental: (§2) Cells were plated in 12 well plates and allowed to grow into a confluent layer in complete RPMI (for A2058 cells) or complete McCoy's 5A medium (for HTB63 cells). As indicated, cells were pre-incubated with the Box5 peptide (100 μM) or control solvent for 40 min with continuous agitation. A wound was then inflicted by making a scratch through the confluent layer of cells with a pipette tip. During the migration period of the assay, cells were incubated either in serum-free medium or in the case of HTB63 cells in their own serum-free-conditioned medium collected from cells cultured for 48 h and used within 2 days after collection. The exact conditions of each experiment are described above. To avoid loss of activity, cell medium was changed after 24 hours. A picture for each scratch was taken in the same area of cells at 0, 16, 24, 40 and 48 hours, and wound healing was measured as percentage of wound area closed. For each experimental condition wound healing was analysed in triplicate. All data were based on 3 to 8 separate experiments as indicated.

A2058 melanoma cells [4] = assay: Wound-healing assay (migration), A2058 cells
Experimental: as §2

PKC = assay: MARCKS phosphorylation (PKC activity) in A2058 cells, Western blot; settings: 100 μM Box5 overnight, rWnt-5a 0.2 μg/ml
Experimental: The cells were either directly lysed in 1× Laemmli buffer containing DTT and boiled for 10 min, or lysed in buffer containing 50 mM Tris-HCl (pH 7.5), 1% Triton X-100, 100 mM NaCl, 10 mM MgCl2, 20% glycerol, 1 mM Na3VO4, and protease inhibitors (20 μg/ml aprotinin, 1 μg/ml leupeptin, 2.5 mM benzamidine, and 2 mM pefabloc). Cell treated with lysis buffer were centrifuged at 15,000 rpm for 5 min at 4° C. The protein content in each sample was determined and adjusted to ensure equal loading of protein in each lane. Thereafter, 50 mM DTT and 5× concentrated Laemmli buffer was added and the samples boiled for 5 min. The samples were separated by SDS polyacrylamide gel electrophoresis and subsequently transferred to PVDF membranes. For immunoblotting the membranes were blocked in PBS supplemented with 0.2% Tween 20 and 1% non-fat milk for Wnt-5a or 3% non-fat milk as for all other antibodies for 1 h. […] Finally, the Ab-antigen complexes were detected using enhanced chemiluminescence. […]
In the present study the level of PKC auto-phosphorylation (Weeraratna et al., 2002, Dissanayake et al., 2007) was not estimated since its relation to PKC kinase activity is unclear. Instead the effects of Wnt-5a and Box5 on the phosphorylation of the endogenous PKC substrate MARCKS were analyzed as a direct means of estimating the activity level of PKC in the melanoma cells. […]

HTB63 melanoma cells [5] = assay: BD Matrigel invasion chamber assay, HTB63 cells; settings: 100 μM Box5, 24 hours
Experimental: as §1

A2058 melanoma cells [6] = assay: Cell adhesion assay, A2058 cells; settings: TGF-β1, 60 min adhesion
Experimental: Cells pre-treated and stimulated as described below were detached with Versene, re-suspended in serum-free RPMI medium and samples containing 30,000 cells from each treatment group were added to each well of a 96-well plate The cells were allowed to adhere for 60 min at 37° C. in a humidified atmosphere of 5% carbon dioxide after which the non-adherent cells were washed away with PBS. The adherent cells were fixed in 1% glutaraldehyde for 10 min at room temperature and then stained with 0.5% crystal violet in 20% methanol for 10 min. Finally the stain from each group of cells was dissolved in 50% acetic acid. The amount of dissolved stain from each well was thereafter measured in a Fluostar plate reader (BMG Lab Technologies GmbH, Offenberg, Germany) at 544 nm. The individual samples from each separate experiment were analysed in quadruplicate and the accumulated data were based on 5 separate experiments. The results are illustrated in FIG. 4. • A) A2058 melanoma cells were stimulated with the indicated concentrations of Wnt-5a, detached with Versene and resuspended as single cells in serum-free medium in the presence or absence of recombinant Wnt-5a at the indicated concentrations. Cells were then allowed to adhere in a 96-well plate. After a period of 60 min the non-adherent cells were washed away while the adherent cells were stained and their number determined. This number is presented as a percentage of the control (no Wnt-5a) stimulation (FIG. 4A) • B) A2058 melanoma cells were cultured to confluence in a 12-well plate after which a scratch was inflicted in each well, the medium was changed to fresh serum-free medium lacking (closed circles) or containing 0.2 μg/ml Wnt-5a (open squares). (FIG. 4B) • C) A2058 melanoma cells were cultured to confluence in a 12-well plate after which a scratch was inflicted to each well, the medium was changed to fresh serum-free medium in the absence of any additive (closed circle), the presence of 0.2 μg/ml Wnt-5a alone (open squares) or the presence of 0.2 μg/ml Wnt-5a with 100 μM Box5 (open triangle). (FIG. 4C) • D) HTB63 melanoma cells were cultured to confluence in a 12-well dish after which a scratch was inflicted to each well, the medium was changed to fresh serum-free medium (closed circle), conditioned medium (open squares) or conditioned medium supplemented with 100 μM Box5 (open triangle). To record changes in migration in panels B-D, a picture was taken from each scratch/well from the same area of cells after 0, 16, 24, 40 or 48 hours, and the wound-healing was expressed as percentage of wound area closed. […] The cells were then allowed to invade for 24 hours after which the attached cells on the lower side of the membrane were counted. […]

[7] = test system: Wnt-5a protein expression; assay: Wnt-5a protein expression in A2058 cells, Western blot
Experimental: The cells were either directly lysed in 1× Laemmli buffer containing DTT and boiled for 10 min, or lysed in buffer containing 50 mM Tris-HCl (pH 7.5), 1% Triton X-100, 100 mM NaCl, 10 mM MgCl2, 20% glycerol, 1 mM Na3VO4, and protease inhibitors (20 μg/ml aprotinin, 1 μg/ml leupeptin, 2.5 mM benzamidine, and 2 mM pefabloc). Cell treated with lysis buffer were centrifuged at 15,000 rpm for 5 min at 4° C. The protein content in each sample was determined and adjusted to ensure equal loading of protein in each lane. Thereafter, 50 mM DTT and 5× concentrated Laemmli buffer was added and the samples boiled for 5 min. The samples were separated by SDS polyacrylamide gel electrophoresis and subsequently transferred to PVDF membranes. For immunoblotting the membranes were blocked in PBS supplemented with 0.2% Tween 20 and 1% non-fat milk for Wnt-5a or 3% non-fat milk as for all other antibodies for 1 h. Thereafter the membranes were incubated for 1 h at room temperature or overnight at 4° C. with the indicated primary Ab (1:25,000 for β-actin; 1:1,000 for Wnt-5a and 1:1,000 for TGF-β1) in 2% non-fat milk or 1.5% BSA. After extensive washing in PBS with 0.2% Tween, the membranes were incubated for 1 h with a horseradish peroxidase-conjugated secondary Ab in 2% non-fat milk or 1.5% BSA and again extensively washed. Finally, the Ab-antigen complexes were detected using enhanced chemiluminescence. […]

endothelin-1: G-protein coupled control receptor ligand from Sigma Aldrich (CSCSSLMDKECVYFCHLDIIW; disulfide 1-15, 3-11; ends not checked; UniProt P05305 53-73, looked up) [reference compound]
Cytosolic Ca^2+ response in A2058 cells, control G-protein coupled receptor ligands [1]: prompt responses

t-boc-Met-Asp-Gly-Cys-Glu-Leu (Boc-MDGCEL) [Box5, novel Wnt-5a-derived N-butyloxycarbonyl hexapeptide (Met-Asp-Gly-Cys-Glu-Leu), Wnt-5a antagonist]
Effect on Wnt-5a-induced invasion of A2058 cells (A2058 melanoma cells [2]; 100 μM Box5, 0.2 μg/ml Wnt-5a, 24 hours): abolished
Effect on basal invasion of A2058 cells (A2058 melanoma cells [2]; 100 μM Box5, 24 hours): no effect
Effect on migration of HTB63 cells (HTB63 melanoma cells [3]): inhibits
Effect on Wnt-5a-induced migration of A2058 cells (A2058 melanoma cells [4]; 100 μM Box5, 0.2 μg/ml Wnt-5a, wound area closed over 0-48 hours): abolished
Effect on intrinsic (basal) migration of A2058 cells (A2058 melanoma cells [4]; 100 μM Box5, no Wnt-5a, wound area closed over 0-48 hours): no effect
Effect on TGF-β1-induced migration of A2058 cells (A2058 melanoma cells [4]; 100 μM Box5 pre-incubated 40 minutes, 5 ng/ml TGF-β1): abolished; also recorded: blocked
Effect on charbacol-induced Ca^2+ signaling ([1]; 100 μM Box5, charbacol 5 μM): no significant effect
Effect on endothelin-1-induced Ca^2+ signaling ([1]; 100 μM Box5, endothelin-1 10 nM): no significant effect
Inhibition of Wnt-5a-induced Ca^2+ signal (peak values) ([1]; 100 μM Box5 overnight pre-incubation, 0.1 μg/ml Wnt-5a): more than 70%
Effect on Wnt-5a-induced MARCKS phosphorylation (PKC): inhibited; also recorded: abolished
Effect on invasion of HTB63 cells (endogenous Wnt-5a) (HTB63 melanoma cells [5]): inhibit

C[N+](C)(C)CCOC(N)=O [carbachol, reference compound]
Cytosolic Ca^2+ response in A2058 cells, control G-protein coupled receptor ligands [1]: prompt responses

TGF-β1: human recombinant TGF-β1 protein from R&D Systems
Effect on migration of A2058 cells in the invasion assay (A2058 melanoma cells [2]; 5 ng/ml TGF-β1, 24 hours): inhibited
Effect on migration of A2058 cells (A2058 melanoma cells [4]; 5 ng/ml TGF-β1): increased
Concentration giving maximal effect on adhesion of A2058 cells (A2058 melanoma cells [6]): 5 ng/mL
Effect on adhesive capacity of A2058 cells (A2058 melanoma cells [6]): stimulated
Concentration giving near maximal Wnt-5a expression ([7]; TGF-β1): 5 ng/mL
Wnt-5a protein expression in A2058 cells ([7]; different concentrations of recombinant TGF-β1, 36 h): increased expression

CC(=O)OCOC(=O)CN(CC(=O)OCOC(C)=O)c1ccc(C)cc1OCCOc1cc(C)ccc1N(CC(=O)OCOC(C)=O)CC(=O)OCOC(C)=O [MAPT/AM, reference compound]
Effect on pro-invasive effect of Wnt-5a on A2058 cells (A2058 melanoma cells [2]; 10 μM MAPT/AM 30 minutes pre-incubation, then 1 μM for 24 hours): completely abolished
Effect on Wnt-5a-stimulated cytosolic Ca^2+ signal ([1]; 10 μM MAPT/AM for 30 minutes, rWnt-5a 0.1 μg/ml): inhibited

B1: Wnt-3a: human recombinant Wnt-3a protein, canonical Wnt ligand (protein, UniProt P56704 19-352, looked up)
Protein Wnt-3a: SYPIWWSLAVGPQYSSLGSQPILCASIPGLVPKQLRFCRNYVEIMPSVAEGIKIGIQECQHQFRGRRWNCTTVHDSLAIFGPVLDKATRESAFVHAIASAGVAFAVTRSCAEGTAAICGCSSRHQGSPGKGWKWGGCSEDIEFGGMVSREFADARENRPDARSAMNRHNNEAGRQAIASHMHLKCKCHGLSGSCEVKTCWWSQPDFRAIGDFLKDKYDSASEMVVEKHRESRGWVETLRPRYTYFKVPTERDLVYYEASPNFCEPNPETGSFGTRDRTCNVSSHGIDGCDLLCCGRGHNARAERRREKCRCVFHWCCYVSCQECTRVYDVHTCK
Stimulation of invasion of A2058 cells (A2058 melanoma cells [2]; 0.1 μg/ml Wnt-3a, 24 hours): not seen
